Assay results: US11771661B2, “Method of treating post-traumatic stress disorder” (ICAHN SCHOOL OF MEDICINE AT MOUNT SINAI, priority 2013, dated 2023)

What was measured:
[1] = system: patients with chronic PTSD; assay: Example 2: randomized, double-blind, midazolam-controlled crossover trial of IV ketamine, symptom ratings; type: in vivo, human
Excerpt: Patients with chronic PTSD were enrolled in a controlled study. […] Exclusion criteria included lifetime history of psychotic or bipolar disorder, current bulimia or anorexia nervosa, alcohol abuse or dependence in the previous three months, serious unstable medical illness or sleep apnea, active suicidal or homicidal ideation on presentation, or current use of any psychotropic medications. All patients underwent a physical examination and laboratory screening including routine hematologic, biochemical and urine toxicology testing, as well as an electrocardiogram to rule out unstable medical illness and active substance use. To receive the second IV infusion, a CAPS score of at least 50 was required prior to the second infusion. The Institutional Review Board at Mount Sinai approved the study, and informed consent was obtained from all study participants.
Study participants were free of concomitant psychotropic medications for two weeks prior to randomization and for the duration of the study. For each procedure day, patients were assigned to receive a single IV infusion of ketamine hydrochloride (0.5 mg/kg) or midazolam (0.045 mg/kg), administered over 40 minutes. Order of infusions (ketamine-midazolam or midazolam-ketamine) was randomly assigned and administrations were two weeks apart. […] Only the research pharmacy was aware of drug identity, and all study personnel, including investigators, anesthesiologists, raters, patients and data analysts were blinded to randomization order.
Following admission and an overnight fast, an indwelling catheter was placed in the antecubital vein of the non-dominant arm. Pulse, blood pressure, pulse-oximetry and ECG monitoring were instituted (see Murrough J et al. Antidepressant efficacy of ketamine in treatment-resistant major depression: a two-site, randomized controlled trial. The American Journal of Psychiatry. 2013 Oct. 1; 170(10):1134-42). Ratings were administered by a trained rater during the infusion and at 240 minutes after the start of the infusion. A different rater, blinded to the ratings during post-infusion on infusion, administered ratings at pre-infusion baseline, 24 hours (Day 1) post-infusion (before patients were discharged from the hospital), 48 hours (Day 2), 72 hours (Day 3), and 7 days (Day 7) post-infusion. Ratings were also administered at 10 and 13 days post-infusion, though data analyses focused on the first week post-infusion due to the expected duration of ketamine action. Patients were instructed to abstain from taking psychotropic medications and from using alcohol or substances of abuse for the duration of the trial. As described above, patients who scored ≥50 on the CAPS 2 weeks after the first infusion received an infusion of the second study drug.
The primary outcome was PTSD symptom severity at 24 hours post-infusion, assessed with the Impact of Event Scale—Revised (IES-R). Twenty-four hours post-infusion was selected as the primary endpoint, as acute sedating and other side effects were expected to have resolved, while potential symptom improvement was expected to persist at 24 hours. Secondary outcome measures included the Montgomery-Asberg Depression Rating Scale (MADRS), the Quick Inventory of Depressive Symptomatology, Self-Report (QIDS-SR), and Clinical Global Impression-Severity (CGI-S) and -Improvement (GCI-I) scales administered by a study clinician at 24 hours, 48 hours, 72 hours and 7 days post-infusion. The IES-R was also administered at 48 hours, 72 hours, and 7 days post-infusion. Additionally, the CAPS was administered 7 days post-infusion.
A mixed-model approach was employed to test effects of treatment, period, and carryover.

[2] = target: NMDA receptors; details: read-out: Ki, binding to NMDA receptors; cited from earlier work
[3] = system: intractable central neuropathic pain; details: in vivo; cited from earlier work
[4] = by treatment group (drug given first)
[5] = individual responder patients, after first infusion
[6] = response = 50% improvement in IES-R score at 24 hours post-infusion

Cc1ncc2n1-c1ccc(Cl)cc1C(c1ccccc1F)=NC2 [midazolam]
number of patients whose symptoms remained significantly improved ([1]; at 2 weeks, CAPS score <50, drug given first): one | decrease in CAPS score ([1]; at 7 days, single infusion study): 13 (sd=18) | CAPS Total (Week 1), mean [1, 4]: 65.69 | CAPS Total (Week 2), mean [1, 4]: 70.81 | CGI-I (Week 1), mean [1, 4]: 3.80 | CGI-I (Week 2), mean [1, 4]: 3.91 | IES-R Total (Week 1), mean [1, 4]: 36.32 | IES-R Total (Week 2), mean [1, 4]: 32.51 | CAPS Total (Week 1) [1, 5]: 50 | CAPS Total (Week 2) [1, 5]: 30 | CGI-I (Week 1) [1, 5]: 4 | CGI-I (Week 2) [1, 5]: 4 | IES-R Total (Day 10) [1, 5]: 6 | IES-R Total (Week 1) [1, 5]: 12.57 | IES-R Total (Week 2) [1, 5]: 5 | IES-R_response No, Percent of total ([1]; of all 35 patients): 31.43% | IES-R_response Yes, Percent of total ([1]; of all 35 patients): 14.29% | IES-R_response No, Frequency [1, 6]: 11 | IES-R_response Yes, Frequency [1, 6]: 5 | IES-R_response No, Row Pct ([1]; share of non-responders): 55.00 Pct | IES-R_response Yes, Row Pct ([1]; share of responders): 33.33 Pct | IES-R_response No, Col Pct ([1]; share of the treatment group): 68.75 Pct | IES-R_response Yes, Col Pct (responded after infusion) ([1]; share of the treatment group, 24 hours post-infusion): 31.25%

CN[C@]1(c2ccccc2Cl)CCCCC1=O [S(+)-ketamine]
Ki [2]: 3.2 µM | potency compared with racemic mixture of ketamine [3]: two times more potent
